Experimental data reported in patent US9730944B2, “Antiviral activity of novel bicyclic heterocycles” (priority 2010, dated 2017).

How the values were obtained:
[1] = Cytotoxicity in HCV-1a replicon cells, Promega CellTiter-Glo cell viability assay
[2] = test system: genotype 1a H-77 replicon; assay: HCV-1a replicon potency in RLuc-1 cells, bioluminescence; assay type: cell-based; details: for HCV-1a Replicon Selectivity Index: CC50/EC50, genotype 1a replicon; for EC50: Hepatitis C virus, 72 h, read-out: HCV-1a Replicon EC50 (μM)

| SMILES | CC50 at 72 h [1] [µM] | HCV-1a Replicon Selectivity Index [2] | EC50 [2] [µM] |
| --- | --- | --- | --- |
| Nc1nc(N2CCN(C(=O)COc3ccc(Cl)cc3)CC2)c2nc(C3CCCCC3)sc2n1 [Example 120, 5-amino-7-[4-(4-chlorophenoxyacetyl)piperazin-1-yl]-2-cyclohexylthiazolo[5,4-d]pyrimidine] | 13.4 | 2.1 | 6.4 |
| Cc1cccc(NC(=O)N2CCCN(c3nc(N)nc4[nH]c(-c5ccc(F)cc5)nc34)CC2)c1 [Example 422, 4-(2-amino-8-(4-fluorophenyl)-9H-purin-6-yl)-N-m-tolyl-1,4-diazepane-1-carboxamide] | 35.1 | 1.3 | 26.1 |
| Nc1nc(N2CC[C@@H](NC(=O)COc3ccc(Cl)cc3)C2)c2nc(CCc3ccc(F)cc3)sc2n1 [Example 143, 5-amino-2-[2-(4-fluorophenyl)ethyl]-7-(3-(R)-[2-(4-chlorophenoxy)-acetylamino]pyrrolidin-1-yl)-thiazolo[5,4-d]pyrimidine] | 30.4 | 0.7 | > 44.4 |
| COc1ccc(-c2nc3c(N4CCN(C(=O)COc5ccc(Cl)cc5)CC4)nc(N)nc3[nH]2)cc1OC [Example 390, 1-(4-(2-amino-8-(3,4-dimethoxyphenyl)-9H-purin-6-yl)piperazin-1-yl)-2-(4-chlorophenoxy)ethanone] | 17.3 | 9.9 | 1.7 |
| Nc1nc(N2CCN(C(=O)COc3ccc(Cl)cc3)CC2)c2nc(-c3cccnc3)sc2n1 [Example 121a, 5-amino-7-[4-(4-chlorophenoxyacetyl)piperazin-1-yl]-2-(pyridine-3-yl)thiazolo[5,4-d]pyrimidine] | > 44.4 | >888 | 0.05 |
| Nc1nc(N2CCN(C(=O)COc3ccc(Cl)cc3)CC2)c2nc(CCc3ccccc3)sc2n1 [Example 118, 5-amino-7-[4-(4-chlorophenoxyacetyl)piperazin-1-yl]-2-(2-phenylethyl)thiazolo[5,4-d]pyrimidine] | 30.3 | 8.4 | 3.6 |
| COc1cccc(C(=O)N2CCN(c3nc(N)nc4[nH]c(-c5ccc(F)cc5)nc34)CC2)c1 [Example 402, (4-(2-amino-8-(4-fluorophenyl)-9H-purin-6-yl)piperazin-1-yl)(3-methoxyphenyl)methanone] | > 44.4 | – | > 44.4 |
| Nc1nc(NC2CCCN(C(=O)OCc3ccccc3)C2)c2nc(CCc3ccc(F)cc3)sc2n1 (stereo not shown) [Example 145, 5-amino-2-[2-(4-fluorophenyl)ethyl]-7-(1-benzyloxycarbonylpiperidin-3-ylamino)-thiazolo[5,4-d]pyrimidine] | 27.6 | 2.1 | 13.1 |
| CC(=O)N1CCN(c2nc(N)nc3[nH]c(-c4ccc(F)cc4)nc23)CC1 [Example 408, 1-(4-(2-amino-8-(4-fluorophenyl)-9H-purin-6-yl)piperazin-1-yl)ethanone] | > 44.4 | – | > 44.4 |
| Nc1nc(N2CCN(C(=O)COc3ccc(Cl)cc3)CC2)c2nc(-c3ccc(Cl)cc3)[nH]c2n1 [Example 392, 1-(4-(2-amino-8-(4-chlorophenyl)-9H-purin-6-yl)piperazin-1-yl)-2-(4-chlorophenoxy)ethanone] | 12.2 | 4.6 | 2.7 |
| Nc1nc(N2CCN(C(=O)COc3ccccc3)CC2)c2cc(-c3ccccc3)sc2n1 [Example 332, 1-(4-(2-amino-6-phenylthieno[2,3-d]pyrimidin-4-yl)piperazin-1-yl)-2-phenoxyethanone] | 38.5 | 0.9 | > 44.4 |
| Cn1c(-c2ccc(F)cc2)nc2c(N3CCN(C(=O)COc4ccc(Cl)cc4)CC3)nc(N)nc21 [Example 430, 1-(4-(2-amino-8-(4-fluorophenyl)-9-methyl-9H-purin-6-yl)piperazin-1-yl)-2-(4-chlorophenoxy)ethanone] | 15.1 | 54.0 | 0.3 |
| Cc1cccc(NC(=O)N2CCN(c3nc(N)nc4sc(CCc5ccc(F)cc5)nc34)CC2)c1 [Example 133, 5-amino-2-[2-(4-fluorophenyl)ethyl]-7-(4-m-tolylcarbamoylpiperazin-1-yl)-thiazolo[5,4-d]pyrimidine] | 15.8 | 1.5 | 10.7 |
| CSc1nc2c(N3CCN(C(=O)COc4ccc(Cl)cc4)CC3)nc(N)nc2[nH]1 [Example 424, 1-(4-(2-amino-8-(methylthio)-9H-purin-6-yl)piperazin-1-yl)-2-(4-chlorophenoxy)ethanone] | > 44.4 | >1.3 | 34.8 |
| Nc1nc(N2CCN(C(=O)COc3ccc(Cl)cc3)CC2)c2nc(-c3ccc(OC(F)(F)F)cc3)[nH]c2n1 [Example 395, 1-(4-(2-amino-8-(4-(trifluoromethoxy)phenyl)-9H-purin-6-yl)piperazin-1-yl)-2-(4-chlorophenoxy)ethanone] | 10.7 | 1.1 | 9.9 |
| Nc1nc(N2CCN(C(=O)COc3ccc(Cl)cc3)CC2)c2nc(-c3ccc(C(F)(F)F)cc3)[nH]c2n1 [Example 394, 1-(4-(2-amino-8-(4-(trifluoromethyl)phenyl)-9H-purin-6-yl)piperazin-1-yl)-2-(4-chlorophenoxy)ethanone] | 10.6 | 1.2 | 9 |
| Nc1nc(N2CCN(C(=O)COc3ccc(Cl)cc3)CC2)c2nc(C(c3ccc(F)cc3)C3CCCC3)sc2n1 (stereo not shown) [Example 151, 5-amino-2-[cyclopentyl-(4-fluorophenyl)methyl]-7-(4-[2-(4-chlorophenoxy)acetyl]piperazin-1-yl)thiazolo[5,4-d]pyrimidine] | 31.2 | 2.1 | 14.7 |
| Cc1cccc(NC(=O)N2CCN(c3nc(N)nc4sc(-c5ccccc5)cc34)CC2)c1 [Example 330, 4-(2-amino-6-phenylthieno[2,3-d]pyrimidin-4-yl)-N-m-tolylpiperazine-1-carboxamide] | 43.5 | 6.0 | 7.2 |
| CCC(c1ccc(F)cc1)c1nc2c(N3CCN(C(=O)COc4ccc(Cl)cc4)CC3)nc(N)nc2s1 (stereo not shown) [Example 150, 5-amino-2-[1-(4-fluorophenyl)propyl]-7-(4-[2-(4-chlorophenoxy)acetyl]piperazin-1-yl)thiazolo[5,4-d]pyrimidine] | 25.9 | 2.0 | 13.1 |
| CC(c1ccc(Cl)cc1)c1nc2c(N3CCN(C(=O)COc4ccc(Cl)cc4)CC3)nc(N)nc2s1 (stereo not shown) [Example 125, 5-amino-7-[4-(4-chlorophenoxyacetyl)piperazin-1-yl]-2-(1-(4-chlorophenyl)ethyl)thiazolo[5,4-d]pyrimidine] | 24.4 | 1.1 | 22.6 |
| Nc1nc(N2CCN(C(=O)COc3ccc(Cl)cc3)CC2)c2nc(C3(c4ccc(Cl)cc4)CC3)sc2n1 [Example 117, 5-amino-7-[4-(4-chlorophenoxyacetyl)piperazin-1-yl]-2-(1-(4-chlorophenyl)cyclopropyl)thiazolo[5,4-d]pyrimidine] | 23.3 | 1.3 | 17.7 |
| Cc1cccc(NC(=O)N2CCN(c3nc(N)nc4oc(CCc5ccc(F)cc5)nc34)CC2)c1 [Example 196, 5-amino-2-[2-(4-fluorophenyl)ethyl]-7-(4-m-tolylcarbamoylpiperazin-1-yl)-oxazolo[5,4-d]pyrimidine] | 24.5 | 1.6 | 15.6 |
| CC(C)(C)c1nc2c(N3CCN(C(=O)COc4ccc(Cl)cc4)CC3)nc(N)nc2[nH]1 [Example 399, 1-(4-(2-amino-8-tert-butyl-9H-purin-6-yl)piperazin-1-yl)-2-(4-chlorophenoxy)ethanone] | 29.1 | 1.2 | 24.7 |
| Nc1nc(N2CCN(C(=O)Nc3ccc(Cl)cc3)CC2)c2cc(-c3ccccc3)sc2n1 [Example 331, 4-(2-amino-6-phenylthieno[2,3-d]pyrimidin-4-yl)-N-(4-chlorophenyl)piperazine-1-carboxamide] | 34.3 | 1.8 | 18.7 |
| Nc1nc(N2CCN(CC(=O)Nc3cccnc3)CC2)c2nc(-c3ccc(F)cc3)[nH]c2n1 [Example 412, 2-(4-(2-amino-8-(4-fluorophenyl)-9H-purin-6-yl)piperazin-1-yl)-N-(pyridin-3-yl)acetamide] | > 44.4 | >111 | 0.4 |
| Nc1nc(N2CCN(C(=O)COc3ccc(Cl)cc3)CC2)c2nc(-c3cccc(Cl)c3)[nH]c2n1 [Example 393, 1-(4-(2-amino-8-(3-chlorophenyl)-9H-purin-6-yl)piperazin-1-yl)-2-(4-chlorophenoxy)ethanone] | 8.1 | 2.5 | 3.2 |
| Nc1nc(N2CCN(c3ccc(Cl)cc3)CC2)c2nc(-c3ccc(F)cc3)[nH]c2n1 [Example 414, 6-(4-(4-chlorophenyl)piperazin-1-yl)-8-(4-fluorophenyl)-9H-purin-2-amine] | 8.7 | 1.2 | 7.3 |
| Nc1nc(N2CCCN(C(=O)COc3ccc(Cl)cc3)CC2)c2nc(-c3ccc(F)cc3)[nH]c2n1 [Example 421, 1-(4-(2-amino-8-(4-fluorophenyl)-9H-purin-6-yl)-1,4-diazepan-1-yl)-2-(4-chlorophenoxy)ethanone] | 23.8 | 1.9 | 12.7 |
| Nc1nc(N2CCN(C(=O)CCc3ccccc3)CC2)c2nc(-c3ccc(F)cc3)[nH]c2n1 [Example 438, 1-(4-(2-amino-8-(4-fluorophenyl)-9H-purin-6-yl)piperazin-1-yl)-3-phenylpropan-1-one] | 6.1 | 0.6 | 10.3 |
